Measured values: patent US12084472B2 (Ardelyx, Inc., priority 2015, dated 2024)

Each compound was assayed against T1, human TGR5 (Homo sapiens, UniProt Q8TDU6) (assay: Cell-based TGR5 assay (cAMP generation, HTRF)). Settings: HEK293 cells stably transfected with human TGR5; cAMP by HTRF; 30 minutes at 37° C.; read-out: pEC50 Human TGR5 (converted).
T1 construct: expressed in transfected cells; host or cells: HEK293
T1 sequence (Q8TDU6 1-330): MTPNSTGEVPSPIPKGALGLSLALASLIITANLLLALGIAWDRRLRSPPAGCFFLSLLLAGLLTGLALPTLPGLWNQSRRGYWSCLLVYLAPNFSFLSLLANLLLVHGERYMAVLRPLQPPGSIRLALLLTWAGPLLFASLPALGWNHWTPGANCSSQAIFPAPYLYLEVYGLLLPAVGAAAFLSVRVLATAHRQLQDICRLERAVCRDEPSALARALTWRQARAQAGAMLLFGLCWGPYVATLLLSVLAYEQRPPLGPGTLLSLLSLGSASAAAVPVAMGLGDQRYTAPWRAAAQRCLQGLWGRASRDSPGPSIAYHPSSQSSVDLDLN
How it was run: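 First, compounds in 3-fold serial dilution were placed in HBSS with 10 mM HEPES pH 7.4 and 0.5 mM IBMX. Next, human TGR5-expressing HEK293 cells were added and incubated 30 min at 37° C. Finally, cAMP was detected by HTRF and pEC50 derived by logistic fitting.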
For `CN(CCCCNC(=O)[C@@H](O)[C@@H](O)[C@H](O)[C@@H](O)CO)S(=O)(=O)c1ccc(Cl)c(COC2(c3cnccc3-c3ccccc3OC3CC3)CC2)c1` [Compound I-458, (2S,3S,4R,5S)-2,3,4,5,6-pentahydroxy-N-{4-[N-methyl4-chloro-3-({1-[4-(2-cyclopropoxyphenyl)pyridin-3-yl]cyclopropoxy}methyl)benzenesulfonamido]butyl}hexanamide], the EC50 was < 100 nM.
`Cc1ccc(SCCCN(CCOCCO)C(=O)[C@@H](O)[C@@H](O)[C@H](O)[C@@H](O)CO)cc1COC1(c2cnccc2-c2ccccc2OC2CC2)CC1` [Compound I-538, (2S,3S,4R,5S)-N-(3-{[3-({1-[4-(2-cyclopropoxyphenyl)pyridin-3-yl]cyclopropoxy}methyl)-4-methylphenyl]sulfanyl}propyl)-2,3,4,5,6-pentahydroxy-N-[2-(2-hydroxyethoxy)ethyl]hexanamide] was tested, and the EC50 was 1260 to 10000 nM.
For `O=C(NCCCCc1cc(Cl)c(COC2(c3cnccc3-c3ccccc3OC3CC3)CC2)cc1Cl)[C@@H](O)[C@@H](O)[C@H](O)[C@@H](O)CO` (stereo in doubt) [Compound I-185, (2S,3S,4R,5S)-N-{4-[2,5-dichloro-4-({1-[4-(2-cyclopropoxyphenyl)pyridin-3-yl]cyclopropoxy}methyl)phenyl]butyl}-2,3,4,5,6-pentahydroxyhexanamide], the EC50 was < 100 nM.
In the case of `C[C@H](CCCC(=O)NC[C@H](O)[C@@H](O)[C@H](O)[C@H](O)CO)c1ccc(Cl)c(CNC2(c3cnccc3-c3ccccc3OC3CC3)CC2)c1` (single isomer, unassigned) [Compound I-315], the EC50 was < 100 nM.
With `O=S(=O)(c1ccc(Cl)c(COC2(c3cnccc3-c3ccccc3OC3CC3)CC2)c1)N1CCc2nc(O)ccc2C1` [Compound I-734, 6-[[4-chloro-3-([1-[4-(2-cyclopropoxyphenyl)pyridin-3-yl]cyclopropoxy]methyl)benzene]sulfonyl]-5,6,7,8-tetrahydro-1,6-naphthyridin-2-ol] the EC50 was < 100 nM.
Compound `CN(CCCCc1cc(Cl)c(COC2(c3cnccc3-c3ccccc3OC3CC3)CC2)cc1Cl)C(=O)CN(CCN(CC(=O)O)CC(=O)N(C)CCCCc1cc(Cl)c(COC2(c3cnccc3-c3ccccc3OC3CC3)CC2)cc1Cl)CC(=O)O` [Compound I-188, 2-({2-[(carboxymethyl)[({4-[2,5-dichloro-4-({1-[4-(2-cyclopropoxyphenyl)pyridin-3-yl]cyclopropoxy}methyl)phenyl]butyl}(methyl)carbamoyl)methyl]amino]ethyl}[({4-[2,5-dichloro-4-({1-[4-(2-cyclopropoxyphenyl)pyridin-3-yl]cyclopropoxy}methyl)phenyl]butyl}(methyl)carbamoyl)methyl]amino)acetic acid] has an EC50 of 126 to 1000 nM.
In the case of `O=C(NC[C@H](O)[C@@H](O)[C@H](O)[C@H](O)CO)NC1CCN(C(=O)CCCCc2cc(Cl)c(COC3(c4cnccc4-c4ccccc4OC4CC4)CC3)cc2Cl)CC1` (stereo in doubt) [Compound I-158, 1-(1-{5-[2,5-dichloro-4-({1-[4-(2-cyclopropoxyphenyl)pyridin-3-yl]cyclopropoxy}methyl)phenyl]pentanoyl}piperidin-4-yl)-3-[(2S,3R,4R,5R)-2,3,4,5,6-pentahydroxyhexyl]urea], the EC50 was < 100 nM.
`CS(=O)(=O)CCN(CCCSc1ccc(Cl)c(CNC2(c3cnccc3-c3ccccc3OC3CC3)CC2)c1)C(=O)[C@@H](O)[C@@H](O)[C@H](O)[C@@H](O)CO` [Compound I-583, (2S,3S,4R,5S)-N-[3-({4-chloro-3-[({1-[4-(2-cyclopropoxyphenyl)pyridin-3-yl]cyclopropyl}amino)methyl]phenyl}sulfanyl)propyl]-2,3,4,5,6-pentahydroxy-N-(2-methanesulfonylethyl) hexanamide] showed an EC50 of 126 to 1000 nM.
For `C[C@@H](CCCN)c1ccc(Cl)c(CNC2(c3cnccc3-c3ccccc3OC3CC3)CC2)c1` (single isomer, unassigned) [Compound I-250], the EC50 was < 100 nM.
`Cc1cc(COC2(c3cnccc3-c3ccccc3OC3CC3)CC2)c(Cl)cc1CCCCN(CCO)C(=O)NC[C@H](O)[C@@H](O)[C@H](O)[C@H](O)CO` [Compound I-97, 1-(4-(5-chloro-4-((1-(4-(2-cyclopropoxyphenyl)pyridin-3-yl)cyclopropoxy)methyl)-2-methylphenyl)butyl)-1-(2-hydroxyethyl)-3-((2S,3R,4R,5R)-2,3,4,5,6-pentahydroxyhexyl)urea] showed an EC50 of 126 to 1000 nM.
`O=C(CCCCc1cc(Cl)c(COC2(c3cnccc3-c3ccccc3OC3CC3)CC2)cc1Cl)NCC1O[C@H](CO)[C@@H](O)[C@H](O)[C@H]1O` (stereo partly drawn) [Compound I-104, 5-[2,5-dichloro-4-({1-[4-(2-cyclopropoxyphenyl)pyridin-3-yl]cyclopropoxy}methyl)phenyl]-N-{[(3R,4R,5S,6R)-3,4,5-trihydroxy-6-(hydroxymethyl)oxan-2-yl]methyl}pentanamide] was tested, and the EC50 was < 100 nM.
With `C[C@@H](CCCCNC(=O)N[C@@H](CO)[C@@H](O)[C@H](O)[C@H](O)CO)c1ccc(Cl)c(COC2(c3cnccc3-c3ccccc3OC3CC3)CC2)c1` [Compound I-263] the EC50 was < 100 nM.
Compound `CC(C)(CO)CN(C[C@@H](O)[C@H](O)[C@@H](O)[C@@H](O)CO)C(=O)CCCSc1ccc(Cl)c(COC2(c3cnccc3-c3ccccc3OC3CC3)CC2)c1` [Compound I-687, 4-{[4-chloro-3-({1-[4-(2-cyclopropoxyphenyl)pyridin-3-yl]cyclopropoxy}methyl)phenyl]sulfanyl}-N-(3-hydroxy-2,2-dimethylpropyl)-N-[(2R,3S,4S,5S)-2,3,4,5,6-pentahydroxyhexyl]butanamide] has an EC50 of 126 to 1000 nM.
Work on `CC(CCCC(=O)N(CCN(C)C)C[C@H](O)[C@@H](O)[C@H](O)[C@H](O)CO)c1ccc(Cl)c(CNC2(c3cnccc3-c3ccccc3OC3CC3)CC2)c1` (stereo partly drawn) [Compound I-337, 5-{4-chloro-3-[({1-[4-(2-cyclopropoxyphenyl)pyridin-3-yl]cyclopropyl}amino)methyl]phenyl}-N-[^2-(dimethylamino)ethyl]-N-[(2S,3R,4R,5R)-2,3,4,5,6-pentahydroxyhexyl]hexanamide] yielded an EC50 of 126 to 1000 nM.
With `C=C(CCCNC(=O)NC[C@H](O)[C@@H](O)[C@H](O)[C@H](O)CO)c1ccc(Cl)c(CNC2(c3cnccc3-c3ccccc3OC3CC3)CC2)c1` [Compound I-383, 1-(4-{4-chloro-3-[({1-[4-(2-cyclopropoxyphenyl)pyridin-3-yl]cyclopropyl}amino)methyl]phenyl}pent-4-en-1-yl)-3-[(2S,3R,4R,5R)-2,3,4,5,6-pentahydroxyhexyl]urea] the EC50 was < 100 nM.
`O=C([C@@H](O)[C@@H](O)[C@H](O)[C@@H](O)CO)N(CCCSc1ccc(Cl)c(COC2(c3cnccc3-c3ccccc3OC3CC3)CC2)c1)C1CCS(=O)(=O)CC1` [Compound I-556, (2S,3S,4R,5S)-N-(3-{[4-chloro-3-({-[4-(2-cyclopropoxyphenyl)pyridin-3-yl]cyclopropoxy}methyl)phenyl]sulfanyl}propyl)-N-(1,1-dioxo-1λ^6-thian-4-yl)-2,3,4,5,6-pentahydroxyhexanamide] was tested, and the EC50 was 126 to 1000 nM.
For `O=C([C@@H](O)[C@@H](O)[C@H](O)[C@@H](O)CO)N(CCCO)CCCCc1cc(Cl)c(COC2(c3cnccc3-c3ccccc3OC3CC3)CC2)cc1Cl` [Compound I-217, (2S,3S,4R,5S)-N-{4-[2,5-dichloro-4-({1-[4-(2-cyclopropoxyphenyl)pyridin-3-yl]cyclopropoxy}methyl)phenyl]butyl}-2,3,4,5,6-pentahydroxy-N-(3-hydroxypropyl)hexanamide], the EC50 was < 100 nM.
`Cc1cc(COC2(c3cnccc3-c3ccccc3OC3CC3)CC2)c(C)cc1CCCCC(=O)N(C)C[C@H](O)[C@@H](O)[C@H](O)[C@H](O)CO` [Compound I-230, 5-[4-({1-[4-(2-cyclopropoxyphenyl)pyridin-3-yl]cyclopropoxy}methyl)-2,5-dimethylphenyl]-N-methyl-N-[(2S,3R,4R,5R)-2,3,4,5,6-pentahydroxyhexyl]pentanamide] was tested, and the EC50 was < 100 nM.
For `CS(=O)(=O)NCCCCN(CCCCSc1ccc(Cl)c(CNC2(c3cnccc3-c3ccccc3OC3CC3)CC2)c1)C(=O)[C@@H](O)[C@@H](O)[C@H](O)[C@@H](O)CO` [Compound I-582, (2S,3S,4R,5S)-N-[4-({4-chloro-3-[({1-[4-(2-cyclopropoxyphenyl)pyridin-3-yl]cyclopropyl}amino)methyl]phenyl}sulfanyl)butyl]-2,3,4,5,6-pentahydroxy-N-(4-methanesulfonamidobutyl) hexanamide], the EC50 was < 100 nM.
Work on `CN(C)S(=O)(=O)CCN(C[C@H](O)[C@@H](O)[C@H](O)[C@H](O)CO)C(=O)CCCSc1ccc(Cl)c(COC2(c3cnccc3-c3ccccc3OC3CC3)CC2)c1` [Compound I-693, 4-{[4-chloro-3-({1-[4-(2-cyclopropoxyphenyl)pyridin-3-yl]cyclopropoxy}methyl)phenyl]sulfanyl}-N-[2-(dimethylsulfamoyl)ethyl]-N-[(2S,3R,4R,5R)-2,3,4,5,6-pentahydroxyhexyl]butanamide] yielded an EC50 of 126 to 1000 nM.
`CC(CCCC(=O)N(C)C[C@H](O)[C@@H](O)[C@H](O)[C@H](O)CO)c1cc(Cl)c(CNC2(c3cnccc3-c3ccccc3OC3CC3)CC2)cc1Cl` (stereo partly drawn) [Compound I-379, 5-{2,5-dichloro-4-[({1-[4-(2-cyclopropoxyphenyl)pyridin-3-yl]cyclopropyl}amino)methyl]phenyl}-N-methyl-N-[(2S,3R,4R,5R)-2,3,4,5,6-pentahydroxyhexyl]hexanamide] showed an EC50 of 126 to 1000 nM.
